Measured values published in patent US20090227632A1, “PHARMACEUTICAL COMPOSITION COMPRISING, IN COMBINATION, SAREDUTANT AND A SELECTIVE SEROTONIN REUPTAKE INHIBITOR OR A SEROTONIN/NOREPINEPHRINE REUPTAKE INHIBITOR” (priority 2006, published 2009).

Tested on: rat
Experiment: DRL-72 s (Differential Reinforcement of Low-rate-72 seconds) in-vivo rat test
Conditions: for % reinforced presses/total number of presses: n = 8 rats, test duration 1 hour, mean±SEM, solvent control 3.07 ± 0.48%; for minimum active dose in the DRL-72 s test: compound alone, intraperitoneally, rat
Description: The in-vivo rat test DRL-72 s (Differential Reinforcement of Low-rate-72 seconds) is used according to the technique described by C. Louis et al., Neuropsychopharmacology, 2006, 1-8.
Effects compared with regard to the percentage of rewards obtained (reinforced presses) with respect to the total number of presses by the rat after intraperitoneal administration of the compound A alone, of the compound B alone and of the compound A+compound B combination versus the control (solvent alone).
Beforehand, the minimum active doses of the compound A alone and of the compound B alone in the DRL-72 s test were determined, namely: • compound A: 10 mg/kg intraperitoneally; • compound B: 5 mg/kg intraperitoneally.
The compound A alone at the dose of 3 mg/kg and the compound B alone at the dose of 2.5 mg/kg were dissolved in a 0.9% (weight/volume) aqueous sodium chloride solution comprising 0.1% (v/v) Tween 80® and administered intraperitoneally at a final volume of 1 ml/kg.
The combination was administered intraperitoneally by two simultaneous administrations of the compound A (3 mg/kg) and then of the compound B (2.5 mg/kg).
The doses of the compounds are expressed in the free base form.
For the requirements of the test, the effect of the compound A alone, the effect of the compound B alone and the effect of the compound A+compound B combination, compared with the effect of the solvent (control), are measured for each animal.
Each rat (n=8) thus receives four injections spread out over time, namely the solvent (control), the compound A alone, the compound B alone and the compound A+compound B combination.
The results obtained are collated in Table I and are expressed as a percentage of rewards obtained with respect to the total number of presses over the duration of the test (1 hour), in the mean±SEM (standard error of the mean) form.

SMILES | percentage number of rewards obtained with respect to the control (in words) (compound B alone 2.5 mg/kg i.p.) | % reinforced presses/total number of presses (compound B alone 2.5 mg/kg intraperitoneally) [%] | minimum active dose in the DRL-72 s test [mg/kg] | percentage number of rewards obtained with respect to the control (in words) (compound A alone 3 mg/kg i.p., increase not statistically significant) | % reinforced presses/total number of presses (compound A alone 3 mg/kg intraperitoneally) [%]
CNCCC(Oc1ccc(C(F)(F)F)cc1)c1ccccc1 (racemic) [Compound B, (±)-N-methyl-3-phenyl-3-[4-(trifluoromethyl)phenoxy]propan-1-amine] | does not modify | 3.82 ± 0.76 | 5 | – | –
CC(=O)NC1(c2ccccc2)CCN(CC[C@H](CN(C)C(=O)c2ccccc2)c2ccc(Cl)c(Cl)c2)CC1 [Compound A, (S)-(−)-N-[4-(4-Acetamido-4-phenylpiperidin-1-yl)-2-(3,4-dichlorophenyl)butyl]-N-methylbenzamide] | – | – | 10 | only slightly modifies | 6.41 ± 1.73
